The source of these data is US20070209082A1, “Txr1 and enhanced taxane sensitivity based on the modulation of a pathway mediated thereby” (priority 2005, published 2007).

Where two headings read alike, the source gives them in different places. Ends that are not written are not given here.

Data set [1] relates to Clone 18. Description: MTT assay of drug sensitivity, Clone 18 cells. Particulars: for Fold of resistance (Clone 18/M2182tTA): IC50 of clone 18 divided by IC50 of M2182tTA; for Effect on taxol resistance / taxol cytotoxicity of clone 18: agent added with taxol, MTT assay. Background: Tetrazolium dyes change colour on reduction, which living cells bring about.
Experimental: (§1) For subsequent plate assays of the effects of taxol and other drugs on colony formation, 1×10^4 cells per 10 cm plate or per each well of six-well plate were seeded one day prior to drug treatment at the concentrations indicated. After 7 to 14 days exposure to drug, the resistant colonies were stained with 0.5% crystal violet solution and photographed. For quantitative determination of the surviving fraction, the collection of crystal violet stained colonies were incubated with 0.5 ml of DMSO overnight and the absorbance at 570 nm of dye extracted solution was measured. The fraction of surviving cells was calculated relative to non-treated controls. Results were averaged from at least two to three independent experiments. For IC50 determination, 3×10^3 cells per well of a 96-well plate were seeded one day prior to treatment by serially diluted drugs or in combination with indicated protein/peptides. The viability of treated cells was quantified by their ability to reduce tetrazolium salt 3-(4,5-dimethylthiazol-2-y)-2,5-diphenyl tetrasodium bromide (MTT, Sigma) to a formazan dye whose absorbance is detectable at 570 nm. The IC50 value was defined as the dose of taxol that inhibited cell growth by 50%.
A further data set has as its system M2182tTA. The data set is described as follows: MTT assay of drug sensitivity, M2182tTA cells. It counts as cell-based, human. The following applies: for Effect on killing of naive M2182tTA cells by taxol: agent added with taxol.
The subject of data set [2] is Clone 18.
Experimental: as §1
For a further data set, the system named is Clone 18 cells. The data set is described as follows: TUNEL assay of apoptosis, clone 18 cells. It counts as cell-based, human. Particulars: clone 18, TSP-1 plus taxol.
Setting [3] is: agent added with adriamycin, etoposide, vinblastine, vincristine or epothilone B.

Experimental for M2182tTA: as §1

In the case of `C/C(=C\c1csc(C)n1)[C@@H]1C[C@@H]2O[C@]2(C)CCC[C@H](C)[C@H](O)[C@@H](C)C(=O)C(C)(C)[C@@H](O)CC(=O)O1` [Epothilone B], in the data set on Clone 18 [1], the “Reduced killing of clone 18 cells (versus parental cells)” value (“Reduced killing of clone 18 cells” for short) is given as “No evidence of reduced killing” and the “Fold of resistance (Clone 18/M2182tTA)” value is 0.9. As to pertussus toxin, the “Cells that survive taxol treatment” value in the data set on M2182tTA (M2182tTA, 0.5 μg/ml pertussis toxin, MTT assay) is given as “An increase in cells that survive taxol treatment”. For `COc1cc([C@@H]2c3cc4c(cc3[C@@H](O[C@@H]3O[C@@H]5CO[C@@H](C)O[C@H]5[C@H](O)[C@H]3O)[C@H]3COC(=O)[C@H]23)OCO4)cc(OC)c1O` [Etoposide, etoposide], in the data set with Clone 18 [1], the “Reduced killing of clone 18 cells” value was “No evidence of reduced killing”. As to “TSP-1: TSP-1 purified from human platelets; extracellular matrix bound adhesive glycoprotein”, the “Ability of TSP-1 alone to reduce survival and induce apoptosis” value in the data set with Clone 18 [1] (TSP-1 alone, at the dosage added to cultures of clone 18 cells) is “only limited ability to reduce survival and induce apoptosis”. Also, in the data set on Clone 18 [1] (setting [3]), the “Effect on killing of clone 18 cells by other chemotherapeutic agents” value is given as “no effects”. Besides, the “Effect on sensitivity of M2182tTA cells to other chemotherapeutic drugs” value in the data set with M2182tTA (setting [3]) was “sensitization was not observed”. Also, in the data set on M2182tTA (MTT assay), the “Effect on killing of naive M2182tTA cells by taxol” value is recorded as “reduced survival”. In the data set with Clone 18 [2], the “Effect on taxol resistance / taxol cytotoxicity of clone 18” value is on record as “dose-dependent partial reversal”. Moreover, the Taxol-induced apoptosis entry in the data set on Clone 18 cells is “dramatically and synergistically increased”. Turning to `COc1cccc2c1C(=O)c1c(O)c3c(c(O)c1C2=O)C[C@@](O)(C(=O)CO)C[C@@H]3O[C@H]1C[C@H](N)[C@H](O)[C@H](C)O1` [Adriamycin, adriamycin], the “Reduced killing of clone 18 cells” value with Clone 18 [1] is reported as “No evidence of reduced killing”. The same measure, in the same setting: under `CC[C@]1(O)C[C@@H]2CN(CCc3c([nH]c4ccccc34)[C@@](C(=O)OC)(c3cc4c(cc3OC)N(C)[C@H]3[C@@](O)(C(=O)OC)[C@H](OC(C)=O)[C@]5(CC)C=CCN6CC[C@]43[C@@H]65)C2)C1` [Vinblastine, vinblastine] stands “No evidence of reduced killing”; under `CC[C@]1(O)C[C@H]2CN(CCc3c([nH]c4ccccc34)[C@@](C(=O)OC)(c3cc4c(cc3OC)N(C=O)[C@H]3[C@@](O)(C(=O)OC)[C@H](OC(C)=O)[C@]5(CC)C=CCN6CC[C@]43[C@@H]65)C2)C1` [Vincristine, vincristine], “No evidence of reduced killing”. For the molecule KRFYGGMWKK [4NGG], the “Effect on taxol resistance / taxol cytotoxicity of clone 18” value in the data set with Clone 18 [1] is listed as “no effect”. As for GVITRIR (human) [ABT-510], the “Effect on taxol resistance / taxol cytotoxicity of clone 18” value in the data set on Clone 18 [1] is listed as “absence of any detectable effect”; in the data set with Clone 18 [1] (listed as ABT510), “no effect”. Also, the “Effect on killing of naive M2182tTA cells by taxol” value with M2182tTA (MTT assay) was “not and absence of any detectable effect”. On to KRFYVVMWKK [4N1K], for which, in the data set on Clone 18 [1], the “Effect on taxol resistance / taxol cytotoxicity of clone 18” value is listed as “dose-dependent partial reversal”. In the case of `CC(=O)O[C@H]1C(=O)[C@@]2(C)[C@H]([C@H](OC(=O)c3ccccc3)[C@]3(O)C[C@H](OC(=O)[C@H](O)[C@@H](NC(=O)c4ccccc4)c4ccccc4)C(C)=C1C3(C)C)[C@]1(OC(C)=O)CO[C@@H]1C[C@@H]2O` [Taxol, Paclitaxel], the “Fold of resistance (Clone 18/M2182tTA)” value with Clone 18 [1] is “approximately two and a half-fold greater”.
